Source: patent US6900202B2, “Di-substituted imineheterocyclic compounds” (priority 2000, dated 2005)

What was measured:
[1] = molecular target: T1, human α4β2 subtype of nicotinic acetylcholine receptors (Homo sapiens, UniProt P17787+P43681); type: cell-based
T1 construct: expressed in transfected cells; host or cells: Xenopus laevis oocytes injected with hnACh-R α4 and β2 cRNA (pSP64 polyA vector)
Procedure: The agonist effect in human α4β2 subtype of nicotinic acetylcholine receptors are examined by using human nicotinic acetylcholine receptors prepared in oocytes of Xenopus laevis, which is injected with cRNA from the corresponding cloning cDNA of human α4 and β2 subunits of nicotinic acetylcholine receptors, and to measure the expression of the electric response by adding the test compounds to perfusion solution by means of membrane potential holding method.
Agonist Activities at Human α4β2 Subtype of Nicotinic Acetylcholine Receptors
The agonist activities of the compounds of the present invention at human α4β2 subtype of nicotinic acetylcholine receptors was evaluated by the following method, which was modified method described by Papke R. L., Thinschmidt J. S., Moulton B. A., Meyer E. M. & Poirier A., Br. J. Pharmacol., 120, 429-438 (1997).
(1) Preparation of cRNA of Human α4β2 Subtype of Nicotinic Acetylcholine Receptors
The cloning of human nicotinic acetylcholine receptor (hnACh-R) α4 cDNA and hnAC-R β2 cDNA were performed, in accordance with the conventional manners, by synthesizing the each DNA primers corresponding to the sequences of hnACh-R α4 cDNA and hnACh-R β2 cDNA [Monteggia L. M. et al., Gene, 155, 189-193 (1995); and Anand R., & Lindstrom J., Nucl. Acids Res., 18, 4272 (1990)], and obtained hnACh-R α4 cDNA and hnACh-R β2 cDNA by polymerase chain reaction (PCR), respectively. The obtained hnACh-R α4 cDNA and hnACh-R β2 cDNA were inserted to the cRNA expression vector (pSP64 polyA) having SP6 RNA promoter to construct hnACh-R α4/pSP64 polyA and hnACh-R β2/pSP64 polyA, respectively. After cutting from expression vector by restriction enzyme (EcoRI), transcription was performed by affecting SP6 RNA polymerase in the presence of cap analogues to obtain hnACh-R α4 cRNA and hnACh-R β2 cRNA, respectively.
(2) Expression of Human α4β2 Subtype Nicotinic Acetylcholine Receptors in Xenopus Oocytes
Oocytes were purchased from Kitanihonseibustukyohzai Co., Ltd., which were already enucleated from Xenopus laevis, and used in this experiment.
The oocytes were treated with collagenase (Sigma type I; 1 mg/ml) in calcium-free modified Birth's solution (88 mM of NaCl, 1 mM of KCl, 2.4 mM of NaHCO3, 0.82 mM of MgSO4, 15 mM of HEPES, pH 7.6) under gently stirring at the room temperature for 90 minutes, and washed out the enzyme from the tissue. Then, oocytes were separated from ovarian follicle by tweezers, and isolated oocytes were placed in antibiotics containing modified Birth's solution (88 mM of NaCl, 1 mM of KCl, 2.4 mM of NaHCO3, 0.82 mM of MgSO4, 15 mM of HEPES, pH 7.6, and 0.1 v/v % of mixture solution containing of penicillin and streptomycin for incubation; Sigma Co.). Thus treated oocytes were injected with 50 nl of adjusted cRNAs (1.0 mg/ml), that is, each 50 ng of hnACh-R α4 cRNA and hnACh-R β2 cRNA per 1 oocyte by using automatic injector (NANOJECT; DRUMMOND […] CO.), and further incubated for 4-14 days at 19° C. In oocytes, heterogeneous quintuple [(α4)2(β2)3] was composed by translation of injected cRNAs, and ion channel receptors were constructed on cell membrane.
(3) Agonist Activities at Human α4β2 Subtype of Nicotinic Acetylcholine Receptors
The recordings of responses at human α4β2 subtype of nicotinic acetylcholine receptors by means of membrane potential holding method were performed as follow. […] Test compounds were added to the perfusion solution, and recorded the peak strength of induced inward electric current. […]

[2] = molecular target: T2, α1β1γδ subtype of nicotinic acetylcholine receptors (Rattus norvegicus, UniProt P18916+P25108+P25109+P25110); assay: biochemical; type: binding
T2 construct: The centrifugation at 100,000×G for 60 minutes at 4° C. yielded the rat muscle extract as supernatant
Description: (§1) The methods for evaluating the binding capabilities of the compounds against nicotinic acetylcholine receptors are different by subtypes of receptors. The binding capabilities of the compounds at α4β2 nicotinic acetylcholine receptors are examined using rat brain membrane obtained from whole homogenized brain, and determining the inhibiting rate of the compounds against [^3H]-cytisine binding to said brain membrane. Furthermore, the binding capabilities of the compounds at α1β1γδ nicotinic acetylcholine receptors are examined using homogenized rat muscle, and determining the inhibiting rate of the compounds against [^3H]-α-bungarotoxin binding to said muscle membrane.
Binding Assays at α1β1γδ Subtype of Nicotinic Acetylcholine Receptors
The affinity of the compounds of the present invention to α1β1γδ subtype of nicotinic acetylcholine receptors was measured by the following method, which was modified method described by Garcha H. S., Thomas P., Spivak C.
(1) Preparation of Rat Skeletal Muscles Containing α1β1γδ Subtype of Nicotinic Acetylcholine Receptors
The substantially same animals described in the Biological Experiment 1 were used.
The isolation of α1β1γδ subtype of nicotinic acetylcholine receptors was performed as follow. That is, rat posterior skeletal muscles were isolated just after sacrificed by decapitation, washed with ice-cooled saline solution and then frozen at −80° C. with liquid nitrogen and stored till using. After thawing the frozen muscles, tissue was homogenized (40% w/v) with buffer solution [2.5 mM of sodium phosphate buffer (pH:7.2), 90 mM of NaCl, 2 mM of KCl, 1 mM of EDTA, 2 mM of benzamidine, 0.1 mM of benzethonium chloride, 0.1 mM of PMSF, 0.01% of sodium azide] in Waring blender [Waring blender 34BL97; WARING PRODUCTS DIVISION DYNAMICS CORPORATION OF AMERICA) for 60 seconds. The homogenate were centrifuged under 20,000×G for 60 minutes at 4° C. The supernatant was separated and the resulting pellet was added to the same buffer (1.5 ml/g wet weight), and homogenized under the same conditions. Triton X100 (2% w/v) was added and the mixture was stirred for 3 hours at 4° C. The centrifugation at 100,000×G for 60 minutes at 4° C. yielded the rat muscle extract as supernatant. This was stored at 4° C. for up to 4 weeks, and used for binding assays at receptors.
(2) Experiments of α1β1γδ Subtype of Nicotinic Acetylcholine Receptors Binding
Receptors binding experiments were performed as follow. That is, the extract of rat muscle containing 600-900 μg of protein was added to test tubes containing test compounds and incubated for 15 minutes at 37° C. Then, to this mixture was added 1 nM of [^3H]-α-bungarotoxin (α-Bgt) and further incubated for 2 hours. The samples were isolated by vacuum filtration onto Whatman GF/B filters, which were prerinsed with 0.5% polyethylenimine just prior to sample filtration, using Brandel multi manifold cell harvester. The filters were rapidly rinsed with washing solution (10 mM of KH2PO4, 150 mM of NaCl, pH 7.2, room temperature) (5×1 ml). The filters were counted in 3 ml of clearsol I (Nacalai Tesque Inc.). The determination of nonspecific binding was incubated in the presence of 1 μM α-Bgt. […] In the receptor binding experiments, said buffer solution was added for adjusting the final concentration of BSA to be 0.05%.
The analyses of the experimental results were conducted by as described in the Biological Experiment 1.

[3] = molecular target: T3, α4β2 subtype of nicotinic acetylcholine receptors (Rattus norvegicus, UniProt P09483+P12390); assay: Binding assay at α4β2 subtype of nicotinic acetylcholine receptors ([3H]-cytisine, rat brain membrane)
T3 construct: examined using rat brain membrane obtained from whole homogenized brain; from tissue; host or cells: whole brain membranes of Fischer-344 male rats
Description: as §1
Binding Assays at α4β2 Subtype of Nicotinic Acetylcholine Receptors
The affinity of the compounds of the present invention to α4β2 subunit of nicotinic acetylcholine receptors was performed by the following method, which was modified method described by Pabreza L. A., Dhawan S. & Kellar K. J., Mol. Pharm., 39, 9-12 (1990), and by Anderson D. J. & Arneric S. P., Eur. J. Pharm., 253, 261-267 (1994).
(1) Preparation of Rat Brain Membrane Containing α4β2 subtype of Nicotinic Acetylcholine Receptors
Fischer-344 strain male rats (body weight: 200-240 g; 9 weeks old) obtained from Charles River Japan were used. Rats were housed in the breeding cage controlled of the room temperature at 23±1° C., and the humidity of 55±5% for 1 to 4 weeks. Rats (3 to 4 rats per a cage) were housed with lights on for 12 hours daily (from 7:00 to 19:00), and allowed free access to food and water.
Preparation of rat brain membrane containing α4β2 subtype of nicotinic acetylcholine receptors was performed as follow. That is, rat brains were isolated just after sacrificed by decapitation, washed with ice-cooled saline solution and then frozen at −80° C. with liquid nitrogen and stored till using. After thawing the frozen brain, the brain was homogenized in 10 volumes of buffer solution (50 mM of Tris-HCl, 120 mM of NaCl, 5 mM of KCl, 1 mM of MgCl2, 2mM of CaCl2; pH 7.4; 4° C.) using homogenizer (HG30, Hitachi Kohki Ltd.) for 30 seconds, and the homogenate were centrifuged under 1,000×G for 10 minutes at 4° C. The resulting supernatant was separated and the pellet was homogenized again with half volume of aforementioned prior buffer solution and centrifuged under the same conditions. Combined supernatant was further centrifuged under 40,000×G for 20 minutes at 4° C. The pellet was suspended in buffer solution and used for binding assays at receptors.
(2) Experiments of α4β2 Subtype of Nicotinic Acetylcholine Receptors Binding
Suspensions of membrane pellets containing 400-600 μg of protein were added to test tubes containing test compounds and [^3H]-cytisine (2 nM) in a final volume of 200 μl and incubated for 75 minutes in ice-cooled bath. The samples were isolated by vacuum filtration onto Whatman GF/B filters, which were prerinsed with 0.5% polyethylenimine just prior to sample filtration, using Brandel multi manifold cell harvester. The filters were rapidly washed with buffer solution (3×1 ml). The filters were counted in 3 ml of clearsol I (Nacalai Tesque Inc.).
The analyses of the experimental results were conducted by using the Accufit Competition Program (Beckman Ltd.).

T2 sequence (P25108 21-457): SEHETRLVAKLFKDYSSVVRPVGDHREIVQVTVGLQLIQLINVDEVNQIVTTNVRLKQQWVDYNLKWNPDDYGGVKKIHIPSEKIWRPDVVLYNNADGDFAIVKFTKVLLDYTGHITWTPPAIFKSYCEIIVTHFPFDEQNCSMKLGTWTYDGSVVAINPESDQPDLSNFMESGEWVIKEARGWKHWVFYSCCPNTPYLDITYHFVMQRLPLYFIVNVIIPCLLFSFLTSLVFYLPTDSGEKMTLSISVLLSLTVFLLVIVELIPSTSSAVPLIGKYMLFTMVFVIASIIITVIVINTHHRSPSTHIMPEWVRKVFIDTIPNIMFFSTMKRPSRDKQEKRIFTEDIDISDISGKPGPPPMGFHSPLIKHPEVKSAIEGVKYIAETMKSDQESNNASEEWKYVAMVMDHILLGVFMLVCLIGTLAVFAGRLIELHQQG
T2 sequence (P25109 24-501): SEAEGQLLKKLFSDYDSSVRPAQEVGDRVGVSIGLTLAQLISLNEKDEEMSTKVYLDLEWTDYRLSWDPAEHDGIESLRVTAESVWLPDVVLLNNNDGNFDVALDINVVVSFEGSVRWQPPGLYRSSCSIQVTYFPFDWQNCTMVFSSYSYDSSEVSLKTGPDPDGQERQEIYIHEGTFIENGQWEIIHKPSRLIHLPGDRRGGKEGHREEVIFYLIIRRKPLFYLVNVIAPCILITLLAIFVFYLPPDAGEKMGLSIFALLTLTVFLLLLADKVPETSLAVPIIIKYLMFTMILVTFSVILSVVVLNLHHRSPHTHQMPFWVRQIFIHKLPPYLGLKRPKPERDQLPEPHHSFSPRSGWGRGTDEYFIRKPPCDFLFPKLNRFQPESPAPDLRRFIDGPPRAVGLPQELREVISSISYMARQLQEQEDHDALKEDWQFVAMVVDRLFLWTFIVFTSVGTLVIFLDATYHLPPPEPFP
T2 sequence (P25110 22-517): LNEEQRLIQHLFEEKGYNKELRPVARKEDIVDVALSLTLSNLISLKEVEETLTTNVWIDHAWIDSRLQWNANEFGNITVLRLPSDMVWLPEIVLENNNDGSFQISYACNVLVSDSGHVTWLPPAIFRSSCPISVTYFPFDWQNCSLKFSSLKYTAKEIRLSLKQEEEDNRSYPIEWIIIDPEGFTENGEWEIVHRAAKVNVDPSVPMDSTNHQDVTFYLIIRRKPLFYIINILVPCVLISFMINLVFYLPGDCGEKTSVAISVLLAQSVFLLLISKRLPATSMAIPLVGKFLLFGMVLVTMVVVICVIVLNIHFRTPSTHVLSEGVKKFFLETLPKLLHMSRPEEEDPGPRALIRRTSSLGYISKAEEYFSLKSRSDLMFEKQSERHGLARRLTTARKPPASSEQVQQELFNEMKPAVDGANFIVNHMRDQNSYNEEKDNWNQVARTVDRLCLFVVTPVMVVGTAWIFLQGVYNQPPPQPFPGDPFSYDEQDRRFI
T1 sequence (P43681 29-627 limits assumed): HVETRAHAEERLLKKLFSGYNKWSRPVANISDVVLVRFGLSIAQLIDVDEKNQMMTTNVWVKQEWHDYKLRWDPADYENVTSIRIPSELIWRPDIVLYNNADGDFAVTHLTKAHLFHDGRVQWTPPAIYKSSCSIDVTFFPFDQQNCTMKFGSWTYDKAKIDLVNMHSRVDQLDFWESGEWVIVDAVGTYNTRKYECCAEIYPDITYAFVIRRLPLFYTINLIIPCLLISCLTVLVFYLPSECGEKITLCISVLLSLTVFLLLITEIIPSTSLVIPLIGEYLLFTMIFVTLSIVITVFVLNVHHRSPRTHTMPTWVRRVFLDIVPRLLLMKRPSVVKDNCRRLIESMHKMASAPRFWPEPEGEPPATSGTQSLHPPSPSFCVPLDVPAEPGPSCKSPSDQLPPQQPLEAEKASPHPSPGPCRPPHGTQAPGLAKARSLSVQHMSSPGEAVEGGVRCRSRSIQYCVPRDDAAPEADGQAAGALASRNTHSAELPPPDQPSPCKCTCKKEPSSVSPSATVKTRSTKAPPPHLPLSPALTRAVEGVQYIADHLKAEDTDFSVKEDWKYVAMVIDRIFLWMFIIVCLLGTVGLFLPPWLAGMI
T1 sequence (P17787 26-502): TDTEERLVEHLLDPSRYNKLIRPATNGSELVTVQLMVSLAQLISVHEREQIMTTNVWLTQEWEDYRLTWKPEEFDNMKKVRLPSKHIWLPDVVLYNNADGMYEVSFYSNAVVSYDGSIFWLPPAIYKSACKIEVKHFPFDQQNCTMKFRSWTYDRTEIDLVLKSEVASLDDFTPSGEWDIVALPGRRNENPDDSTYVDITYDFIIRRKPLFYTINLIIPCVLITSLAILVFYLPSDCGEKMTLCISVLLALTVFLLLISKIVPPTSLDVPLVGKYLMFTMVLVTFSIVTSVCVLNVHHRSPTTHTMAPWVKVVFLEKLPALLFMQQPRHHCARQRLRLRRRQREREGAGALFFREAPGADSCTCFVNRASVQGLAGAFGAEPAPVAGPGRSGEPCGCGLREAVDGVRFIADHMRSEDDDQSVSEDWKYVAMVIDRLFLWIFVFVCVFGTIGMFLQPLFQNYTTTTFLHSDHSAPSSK
T3 sequence (P09483 31-630): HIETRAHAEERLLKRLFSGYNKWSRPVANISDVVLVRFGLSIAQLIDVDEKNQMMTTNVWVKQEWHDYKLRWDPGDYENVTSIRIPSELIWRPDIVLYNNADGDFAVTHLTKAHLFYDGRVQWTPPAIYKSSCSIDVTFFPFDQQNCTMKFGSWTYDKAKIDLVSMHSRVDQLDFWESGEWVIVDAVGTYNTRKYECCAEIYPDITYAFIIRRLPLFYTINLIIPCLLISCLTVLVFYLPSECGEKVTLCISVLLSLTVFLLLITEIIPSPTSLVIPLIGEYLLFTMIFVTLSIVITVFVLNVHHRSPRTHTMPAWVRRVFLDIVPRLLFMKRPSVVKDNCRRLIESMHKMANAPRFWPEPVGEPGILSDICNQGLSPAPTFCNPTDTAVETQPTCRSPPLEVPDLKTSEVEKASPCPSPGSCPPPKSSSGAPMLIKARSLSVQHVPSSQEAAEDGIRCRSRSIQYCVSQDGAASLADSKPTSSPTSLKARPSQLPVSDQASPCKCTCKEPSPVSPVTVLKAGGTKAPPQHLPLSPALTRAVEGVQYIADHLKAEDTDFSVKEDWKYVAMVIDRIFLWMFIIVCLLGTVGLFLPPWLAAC
T3 sequence (P12390 25-500): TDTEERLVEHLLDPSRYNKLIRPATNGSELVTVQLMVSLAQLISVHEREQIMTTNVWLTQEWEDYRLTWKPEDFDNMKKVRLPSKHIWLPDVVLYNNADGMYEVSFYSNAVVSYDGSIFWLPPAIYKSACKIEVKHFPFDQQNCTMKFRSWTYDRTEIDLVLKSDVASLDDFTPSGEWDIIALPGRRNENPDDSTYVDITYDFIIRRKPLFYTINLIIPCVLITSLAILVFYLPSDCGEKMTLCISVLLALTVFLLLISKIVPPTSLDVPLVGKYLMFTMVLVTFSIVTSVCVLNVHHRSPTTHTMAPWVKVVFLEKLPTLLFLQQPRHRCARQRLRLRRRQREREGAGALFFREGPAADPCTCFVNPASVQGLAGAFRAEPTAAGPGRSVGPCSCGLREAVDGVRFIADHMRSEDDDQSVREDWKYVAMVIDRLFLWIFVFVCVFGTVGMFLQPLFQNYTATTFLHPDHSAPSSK

SMILES	Agonist effect [1]	Ki [2]	Ki [3]
CN1CCCC1c1cccnc1 (single isomer, unassigned; (-)) [Nicotine, (−)-nicotine, reference compound]	146%		
Clc1ccc(CC/N=C2\SCCN2Cc2ccc(Cl)nc2)cn1 [Compound 15, 3-(6-chloro-3-pyridyl)methyl-2-[2-(6-chloro-3-pyridyl)ethyl]iminothiazolidine]		479 µM	0.086 µM
